# Measurements taken from PMC6710338, “Turning a Collagenesis-Inducing Peptide Into a Potent Antibacterial and Antibiofilm Agent Against Multidrug-Resistant Gram-Negative Bacteria” (Frontiers in Microbiology, 2019).
# Values joined by “and” are separate entries in the source; they are usually repeats but may differ in a detail not shown here. Equal entries are not always repeated. Where two headings read alike, the source gives them in different places. Peptide text beside a SMILES is read from it.
# Legend:
# E. coli ATCC 25922 = test: MIC, broth microdilution (CLSI), ATCC reference strain; format: cell-based, Escherichia coli; details: E. coli ATCC 25922
# Description: (§1) The minimum inhibitory concentration (MIC) of synthetic peptides was determined using the broth microdilution method in cation-adjusted Mueller-Hinton broth (MHB2 – Sigma-Aldrich, St. Louis, MO, United States), according to the recommendations of the Clinical and Laboratory Standards Institute ([CLSI, 2012]), against four reference strains, namely, P. aeruginosa ATCC 27853, E. coli ATCC 25922, S. aureus ATCC 25923 and Enterococcus faecalis ATCC 29212. MIC values of peptide 3.1-PP4 were also determined against MDR clinical isolates of P. aeruginosa (PA002, PA004, Pa3, Pa4), E. coli (Ec1, Ec2, EC001, EC002, EC003) and K. pneumoniae (KP004, KP007, KP010). The peptides were tested in the concentration range of 1–1024 μg/mL. The minimum bactericidal concentration (MBC) was determined as previously reported ([Bessa et al., 2018]). According to CLSI guidelines for antimicrobial susceptibility testing, MIC values were determined for all peptides against ATCC reference strains of two Gram-positive (S. aureus ATCC 25923 and E. faecalis ATCC 29212), and two Gram-negative (P. aeruginosa ATCC 27853 and E. coli ATCC 25922) bacterial species, and are shown in Table 2.
# S. aureus ATCC 25923 = test: as above; format: cell-based, Staphylococcus aureus
# Description: as §1
# [1] = test system: MDR clinical isolates of P. aeruginosa (PA002, PA004, Pa3, Pa4); format: cell-based, Pseudomonas aeruginosa
# Description: as §1, with “2018]).” for “2018]). According to CLSI guidelines for antimicrobial susceptibility testing, MIC values were determined for all peptides against ATCC reference strains of two Gram-positive (S. aureus ATCC 25923 and E. faecalis ATCC 29212), and two Gram-negative (P. aeruginosa ATCC 27853 and E. coli ATCC 25922) bacterial species, and are shown in Table 2.”
# (§2) In view of the above results, peptide conjugate 3.1-PP4 was selected for further investigation of its activity against MDR isolates of three Gram-negative bacterial species, namely, P. aeruginosa (four isolates), E. coli (five isolates), and K. pneumoniae (four isolates), whose antimicrobial resistance patterns are provided in the Supplementary Table S1. MDR isolates of K. pneumoniae were included in this analysis given (i) the high prevalence of K. pneumoniae in HAI ([Zheng et al., 2017]), (ii) that K. pneumoniae isolates used are carbanepem-resistant strains of an Enterobacteriaceae species, meaning that they are class 1 priority pathogens for the research and development of new antibiotics according to the WHO ([WHO, 2017]), and (iii) K. pneumoniae bacteria are usually better biofilm producers than the other Enterobacteriaceae species used, E. coli ([Reisner et al., 2006]). MIC values obtained are shown in Table 3, and confirm peptide’s 3.1-PP4 potent action against Gram-negative bacteria, including MDR isolates, with a selectivity index (SI), i.e., ratio of IC50 values for mammalian vs. bacterial cells, ranging from ca. 9–69. In fact, for P. aeruginosa and E. coli, MIC against MDR isolates were in the same range, or below, of those previously found for ATCC reference strains (Table 2). For K. pneumoniae, MIC values ranged between 1 and 4 μM, which is remarkable.
# [2] = test system: MDR clinical isolates of E. coli (Ec1, Ec2, EC001, EC002, EC003); format: cell-based, Escherichia coli; details: MHB2
# Description: as §1, with “2018]).” for “2018]). According to CLSI guidelines for antimicrobial susceptibility testing, MIC values were determined for all peptides against ATCC reference strains of two Gram-positive (S. aureus ATCC 25923 and E. faecalis ATCC 29212), and two Gram-negative (P. aeruginosa ATCC 27853 and E. coli ATCC 25922) bacterial species, and are shown in Table 2.”
# as §2
# [3] = test system: multidrug-resistant isolates of Klebsiella pneumoniae, E. coli, and P. aeruginosa; format: cell-based
# Description: as §1, with “2018]).” for “2018]). According to CLSI guidelines for antimicrobial susceptibility testing, MIC values were determined for all peptides against ATCC reference strains of two Gram-positive (S. aureus ATCC 25923 and E. faecalis ATCC 29212), and two Gram-negative (P. aeruginosa ATCC 27853 and E. coli ATCC 25922) bacterial species, and are shown in Table 2.”
# (§3) In view of the above results, peptide conjugate 3.1-PP4 was selected for further investigation of its activity against MDR isolates of three Gram-negative bacterial species, namely, P. aeruginosa (four isolates), E. coli (five isolates), and K. pneumoniae (four isolates), whose antimicrobial resistance patterns are provided in the Supplementary Table S1. […]
# [4] = test system: MDR isolates of P. aeruginosa, E. coli and K. pneumoniae; test: Minimum bactericidal concentration (MBC); format: cell-based; details: all MDR isolates tested
# Description: as §1, with “2018]).” for “2018]). According to CLSI guidelines for antimicrobial susceptibility testing, MIC values were determined for all peptides against ATCC reference strains of two Gram-positive (S. aureus ATCC 25923 and E. faecalis ATCC 29212), and two Gram-negative (P. aeruginosa ATCC 27853 and E. coli ATCC 25922) bacterial species, and are shown in Table 2.”
# as §3
# [5] = test system: biofilms of PA004, KP007, and KP010; test: CLSM imaging of biofilms after Live/Dead staining; format: cell-based, P. aeruginosa and K. pneumoniae; details: qualitative
# Description: For confocal laser scanning microscopy (CLSM) imaging, 24 h biofilms of PA004, KP007, and KP010 were formed in μ-Dish (35 mm, high), ibidi Polymer Coverslips (ibidi GmbH, Planegg-Martinsried, Germany) as previously described by [Bessa et al. (2018)]. Biofilms were non-treated – controls (only medium was used) or treated with 3.1-PP4 at a concentration of 20 × MIC. After 24 h, all biofilms were stained using the LIVE/DEAD^TM BacLight^TM bacterial viability kit (Molecular Probes, Thermo Fisher Scientific, MA, United States). Biofilms were visualized under a laser scanning confocal system Leica TCS SP5 II (Leica Microsystems, Germany), equipped with an inverted (i) microscope Leica DMI6000-CS, using a HC PL APO CS 63x/1.30 Glycerine 21°C objective and the lasers Diode 405 nm and DPSS561 561 nm, and (ii) the LAS AF software.
# To gain further insight into the peptide’s effects on the bacterial biofilms, a Live/Dead staining assay using CLSM was carried out, where untreated and peptide-treated biofilms delivered the images depicted in Figure 2. […] Noteworthy, only bacterial cells, not biofilm matrix, are stained when the Live/Dead staining is used, which means that only cells within the biofilm are observed.
smiles,measurement,setting,value
CC(C)C[C@H](NC(=O)[C@H](Cc1c[nH]c2ccccc12)NC(=O)[C@H](CCCCN)NC(=O)[C@H](CC(C)C)NC(=O)[C@H](CC(C)C)NC(=O)[C@H](CCCCN)NC(=O)[C@@H](N)CCCCN)C(=O)N[C@@H](CC(C)C)C(=O)N[C@@H](CCCCN)C(=O)N[C@@H](CC(C)C)C(=O)N[C@@H](CC(C)C)C(=O)N[C@@H](CCCCN)C(=O)N[C@H](C(=O)N[C@H](C(=O)N[C@@H](CCCCN)C(=O)N[C@@H](CO)C(N)=O)[C@@H](C)O)[C@@H](C)O [Peptide 3.1-PP4] (H-KKLLKWLLKLLKTTKS-NH2; N-terminus assumed),MIC,"E. coli ATCC 25922; broth microdilution in MHB2, CLSI, value in parentheses",1.0 µM
same,MIC,"E. coli ATCC 25922; broth microdilution in cation-adjusted Mueller-Hinton broth (MHB2), CLSI, range tested 1–1024 μg/mL",2 µg/mL
same,MIC,S. aureus ATCC 25923; ATCC 25923,16 µM
same,MIC,"S. aureus ATCC 25923; S. aureus ATCC 25923, broth microdilution in MHB2, CLSI, range tested 1–1024 μg/mL",32 µg/mL
same,MIC,"[1]; MDR P. aeruginosa isolate PA002, MHB2",4 µg/mL
same,MIC,"[1]; MDR P. aeruginosa isolate PA004, MHB2",2 μg/mL and 1 μM
same,MIC,"[1]; MDR P. aeruginosa isolate Pa3, MHB2",2 μg/mL and 1 μM
same,MIC,"[1]; MDR P. aeruginosa isolate Pa4, MHB2",2 μg/mL and 1 μM
same,MIC,"[1]; MDR clinical isolates of (PA002, PA004, Pa3, Pa4)",2 µM
same,MIC,[2]; MDR E. coli isolate EC001,2 μg/mL and 1 μM
same,MIC,[2]; MDR E. coli isolate EC002,2 μg/mL and 1 μM
same,MIC,[2]; MDR E. coli isolate EC003,1 µg/mL
same,MIC,[2]; MDR E. coli isolate Ec1,4 µg/mL
same,MIC,[2]; MDR E. coli isolate Ec2,2 μg/mL and 1 μM
same,MIC values against multidrug-resistant isolates,[3],0.5 to 4.1 µM
same,minimal bactericidal concentrations (MBC),[4],match the MIC in all cases
same,"ratio of red- to green-stained bacterial cells (Live/Dead, CLSM)","[5]; 24 h biofilms of PA004, KP007, KP010 treated 24 h at 20 × MIC, vs untreated",consistently higher in peptide-treated
same,"impact on biofilm (Live/Dead, CLSM)","[5]; isolate KP010, 24 h biofilm treated 24 h at 20 × MIC",significant biofilm disaggregation
